In PMC10818623, “Assessing Trans-Inhibition of OATP1B1 and OATP1B3 by Calcineurin and/or PPIase Inhibitors and Global Identification of OATP1B1/3-Associated Proteins” (Pharmaceutics, 2023):
Several values for one entry are separate records, joined by “and”; a condition that tells them apart may be missing. Equal entries are not always repeated. Where two headings read alike, the source gives them in different places. One block for each compound: values may come before it.

What was measured:
OATP1B1 [1] = biological target: T1, OATP1B1 (Homo sapiens, UniProt Q9Y6L6); test: Preincubation-induced trans-inhibition of OATP1B1-mediated [3H]-E217βG transport in HEK293-FLAG-OATP1B1 cells; format: cell-based; set-up: expressed in transfected cells; details: for IC50: washing, [3H]-E217βG 1 µM 2 min without inhibitor, HEK293-FLAG-OATP1B1, read-out: Preincubation IC50 against OATP1B1
T1 sequence (Q9Y6L6 1-691): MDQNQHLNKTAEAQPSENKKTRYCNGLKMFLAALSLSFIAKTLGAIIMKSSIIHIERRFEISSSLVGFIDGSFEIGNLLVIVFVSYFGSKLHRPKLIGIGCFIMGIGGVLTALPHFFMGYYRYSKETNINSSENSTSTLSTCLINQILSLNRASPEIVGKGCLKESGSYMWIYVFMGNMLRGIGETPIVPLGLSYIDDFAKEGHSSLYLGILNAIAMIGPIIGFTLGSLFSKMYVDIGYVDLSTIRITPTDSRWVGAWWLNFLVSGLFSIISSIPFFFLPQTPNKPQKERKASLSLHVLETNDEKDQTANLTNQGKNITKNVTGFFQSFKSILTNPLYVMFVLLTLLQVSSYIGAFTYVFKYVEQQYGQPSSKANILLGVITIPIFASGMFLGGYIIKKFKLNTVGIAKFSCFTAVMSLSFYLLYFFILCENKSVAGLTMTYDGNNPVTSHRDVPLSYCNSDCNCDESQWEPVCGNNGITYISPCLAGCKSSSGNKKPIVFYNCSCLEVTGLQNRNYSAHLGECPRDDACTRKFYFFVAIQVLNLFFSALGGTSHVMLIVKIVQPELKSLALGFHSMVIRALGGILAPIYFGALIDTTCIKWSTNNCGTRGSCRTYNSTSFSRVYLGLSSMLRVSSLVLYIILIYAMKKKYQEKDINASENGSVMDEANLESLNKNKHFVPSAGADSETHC
Description: The IC50 values were estimated by nonlinear regression using the three-parameter model as below with GraphPad Prism v.9.0 (GraphPad Software, La Jolla, CA, USA). E = Bottom + (Top − Bottom)/(1 + (C/IC50))

human SCH = test: [3H]-pitavastatin accumulation in human sandwich-cultured hepatocytes after inhibitor preincubation and washing; format: cell-based; details: 10 µM
Protocol: Fresh primary human hepatocytes were purchased from Lonza Walkersville, Inc. (Walkersville, MD, USA). Donor information is provided in Supplementary Table S1. Cell viability was 96% after centrifugation. Culture of human SCH was performed as described previously. In brief, on day 1, cells were plated at 3 × 10^5 cells per well in 24-well Biocoat™ plates (Thermo Fisher Scientific, Waltham, MA, USA). When cells had attached to the plate after 6 h of seeding, cells were overlaid with Matrigel™ (Thermo Fisher Scientific, Waltham, MA, USA) (0.25 mg/mL) in feeding medium: phenol red-free DMEM supplemented with 2 mM L-glutamine, 1% (v/v) MEM NEAA, 100 units/mL of penicillin G sodium, 100 µg/mL of streptomycin sulfate, 0.1 μM dexamethasone, and 1% (v/v) ITS^+ premix. Uptake experiments were conducted on day two of culture, the next day after seeding.

OATP1B1 [2] = biological target: T1, OATP1B1; test: Preincubation-induced trans-inhibition of OATP1B1-mediated [3H]-E1S transport in HEK293-FLAG-OATP1B1 cells; format: cell-based; set-up: expressed in transfected cells; details: E1S 1 µM, 2 min
Protocol: (§1) HEK293-FLAG-OATP1B1 and HEK293-FLAG-OATP1B3 cells were seeded at a density of 1.5 × 10^5 cells per well of 24-well plate coated with poly-L-lysine and allowed to grow for 48 h to confluence before uptake studies were performed as published previously; the preincubation effects on OATP1B1- and OATP1B3-mediated transport were also determined as previously published. […] After washing three times with HBSS buffer (pH 7.4), substrate accumulation was determined in the absence of inhibitors. [^3H]-E217βG (1 µM, 2 min) and [^3H]-E1S (1 µM, 2 min) were used as probe substrates for OATP1B1; [^3H]-CCK-8 (1 µM, 3 min) was used as the probe substrate for OATP1B3, similar to previous publications. [^3H]-pitavastatin accumulation (1 µM, 30 s) in human SCH was conducted on day 2 of culture as has been published previously. Substrate accumulation was determined by scintillation counting (LS6500 scintillation counter, Beckman Coulter, Brea, CA) and normalized to a protein concentration determined via BCA assay (Pierce Chemical, Rockford, IL, USA). Transport assays on a blank plate without cells were conducted to correct for the nonspecific binding to the assay plate.

OATP1B3 [3] = biological target: T2, OATP1B3 (Homo sapiens, UniProt Q9NPD5); set-up: method as in PMID 22240838; details: cited from earlier work
T2 construct: expressed in transfected cells
T2 sequence (Q9NPD5 1-702): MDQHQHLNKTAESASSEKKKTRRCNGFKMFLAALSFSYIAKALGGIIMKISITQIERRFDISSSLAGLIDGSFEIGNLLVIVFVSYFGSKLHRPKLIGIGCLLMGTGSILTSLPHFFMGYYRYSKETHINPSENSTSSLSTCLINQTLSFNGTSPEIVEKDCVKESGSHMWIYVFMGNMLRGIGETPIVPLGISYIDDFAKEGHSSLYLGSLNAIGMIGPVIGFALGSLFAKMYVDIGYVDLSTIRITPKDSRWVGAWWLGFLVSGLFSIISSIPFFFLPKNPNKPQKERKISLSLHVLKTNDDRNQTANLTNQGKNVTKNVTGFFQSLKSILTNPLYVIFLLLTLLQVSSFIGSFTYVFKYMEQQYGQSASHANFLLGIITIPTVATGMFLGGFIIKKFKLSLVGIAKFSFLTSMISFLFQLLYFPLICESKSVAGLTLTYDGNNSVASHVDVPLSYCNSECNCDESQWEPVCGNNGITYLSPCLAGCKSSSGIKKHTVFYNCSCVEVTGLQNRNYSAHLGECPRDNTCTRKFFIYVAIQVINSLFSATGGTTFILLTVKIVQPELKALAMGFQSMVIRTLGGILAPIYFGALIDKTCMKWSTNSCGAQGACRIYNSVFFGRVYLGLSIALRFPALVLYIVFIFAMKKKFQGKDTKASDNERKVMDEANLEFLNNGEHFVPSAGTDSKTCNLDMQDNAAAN

[4] = cited from earlier work
OATP1B1 [5] = biological target: T1, OATP1B1; details: E1S as substrate; cited from earlier work
OATP1B3 [6] = biological target: T2, OATP1B3; test: Preincubation-induced trans-inhibition of OATP1B3-mediated [3H]-CCK-8 transport in HEK293-FLAG-OATP1B3 cells; format: cell-based; details: preincubation 10–60 min with tacrolimus 1–10 µM; greatest reduction
Protocol: as §1

IC50 (OATP1B1 [1]; 10 min preincubation (0.001–10 µM)): ~9.4 µM and 9.4 µM
IC50 (OATP1B1 [1]; 30 min preincubation (0.001–10 µM)): ~3.1 µM and 3.1 µM
IC50 (OATP1B1 [1]; 60 min preincubation (0.001–10 µM)): 2.2 ± 1.4 µM
IC50 against OATP1B1, fold greater than that of CsA (OATP1B1 [1]; 60 min preincubation, SCY-635 IC50 versus CsA IC50): ~ 18 fold
Preincubation IC50 at 30 min, fold higher than IC50 at 60 min preincubation (OATP1B1 [1]; OATP1B1, 30 min versus 60 min preincubation): 1.4 fold
Effect of preincubation on OATP1B1-mediated transport (OATP1B1 [1]; SCY-635, all preincubation times, only at 5 and 10 µM, p < 0.00001): significantly reduced
Compound: C/C=C/C[C@@H](C)[C@@H](O)[C@H]1C(=O)N[C@@H](CC)C(=O)N(C)[C@H](SCCN(C)C)C(=O)N(C)[C@@H](CC(C)(C)O)C(=O)N[C@@H](C(C)C)C(=O)N(C)[C@@H](CC(C)C)C(=O)N[C@@H](C)C(=O)N[C@H](C)C(=O)N(C)[C@@H](CC(C)C)C(=O)N(C)[C@@H](CC(C)C)C(=O)N(C)[C@@H](C(C)C)C(=O)N1C [SCY-635]

OATP1B1-mediated transport of [3H]-E1S, fold that of the control (OATP1B1 [2]; 1 µM preincubation, 10 min): 0.85 ± 0.02 fold that of the control
OATP1B1-mediated transport of [3H]-E1S, fold that of the control (OATP1B1 [2]; 1 µM preincubation, 30 min): 0.88 ± 0.04 fold that of the control
OATP1B1-mediated transport of [3H]-E1S, fold that of the control (OATP1B1 [2]; 10 µM preincubation, 10 min): 0.59 ± 0.04 fold that of the control
OATP1B1-mediated transport of [3H]-E1S, fold that of the control (OATP1B1 [2]; 10 µM preincubation, 30 min): 0.59 ± 0.05 fold that of the control
OATP1B1-mediated transport of [3H]-E1S, fold that of the control (OATP1B1 [2]; 10 µM preincubation, 60 min): 0.55 ± 0.04 fold that of the control
OATP1B1-mediated transport, reduced up to, fold compared to the control (OATP1B1 [1]; preincubation 10–60 min with tacrolimus 1–10 µM, greatest reduction): 0.18 ± 0.03 fold compared to the control
OATP1B3-mediated transport, reduced up to, fold compared to the control (OATP1B3 [6]): 0.20 ± 0.02 fold compared to the control
Compound: C=CC[C@@H]1/C=C(\C)C[C@H](C)C[C@H](OC)[C@H]2O[C@@](O)(C(=O)C(=O)N3CCCC[C@H]3C(=O)O[C@H](/C(C)=C/[C@@H]3CC[C@@H](O)[C@H](OC)C3)[C@H](C)[C@@H](O)CC1=O)[C@H](C)C[C@@H]2OC [tacrolimus]
[3H]-pitavastatin accumulation after washout (long-lasting inhibition), fold that of the control (human SCH): 0.59 ± 0.09 fold that of the control
[3H]-pitavastatin accumulation, fold that of the control (human SCH; human SCH, 1 h preincubation, washing, pitavastatin 1 µM, 0.5 min, N = 1 donor): 0.58 ± 0.07 fold that of the control
Preincubation-induced trans-inhibition against OATP1B3 (OATP1B3 [3]): no preincubation-induced trans-inhibition
DDI against atorvastatin [4]: does not cause DDIs
DDI against simvastatin [4]: does not cause DDIs
Increase of AUC of cerivastatin ([4]; long-term tacrolimus treatment, renal transplant recipients): 1.5 fold
Increase of AUC of pravastatin ([4]; long-term tacrolimus treatment, two pediatric and adolescent cardiac transplant recipients): ~ 10 fold
Preincubation-induced trans-inhibition against OATP1B1 (OATP1B1 [5]): no preincubation-induced trans-inhibition
